Key:
[1] = molecular target: T1, HIV-1 RT double mutant K103N/Y181C (Human immunodeficiency virus type 1 group M subtype B, UniProt P04585, K690N/Y768C); test: Reverse Transcriptase (RT) assay, double mutant enzyme; assay type: biochemical
T1 construct: Heterodimeric RT was eluted using a descending gradient; made in house; host or cells: E. coli (inferred; the text describes only wild type and Y181C preparations)
Text: (§1) Among the enzymes for which Human Immunodeficiency Virus (HIV-1) encodes is a reverse transcriptase (1), so-named because it transcribes a DNA copy from an RNA template. This activity can be quantitatively measured in a cell-free enzyme assay, which has been previously described (2), and is based upon the observation that reverse transcriptase is able to use a synthetic template poly r(C) primed with oligo d(G) to transcribe a radio-labelled, acid-precipitable DNA strand utilising ^3H-dGTP as a substrate. The assay described below utilises the wild type (WT) enzyme, which is the predominant form of the enzyme observed with patients infected with HIV-1. Utilisation of mutant RT enzymes (for example, Y181C, prepared by site-directed mutagenesis in which the tyrosine residue at codon 181 has been replaced by a cysteine residue, or the mutants K103N, V106A and Y188C) and analogous assay conditions allows compounds to be evaluated for their effectiveness at inhibiting the mutant enzymes.
(§2) The HIV-1 RT expression clone, pKRT2, was obtained from Yale University (3). An overnight culture, grown in 2×YT medium (37° C., 225 rpm) (4), supplemented with 100 μg/mL ampicillin for positive selection was used to inoculate the 2×YT medium. The culture was incubated (37° C., 225 rpm) until it reached an OD600 of 0.6-0.9. At that time, the repressor inhibitor IPTG (isopropyl P-D-thiogalactopyranoside) was added to 0.5 mM, and the mixture was incubated for an additional 2 hours.
(§3) Purification of recombinant reverse transcriptase was performed using a combination of methods previously described (5). This procedure is summarised briefly as follows: E. Coli containing RT-1 wt or RT-1 (Y181 C) were suspended in 50 mM MES, pH 6.0 containing 10% glycerol, lysed in a French press, centrifuged, and the supernates discarded. Lysate pellets were extracted with buffer A (50 mM MES, pH 6.0, 100 mM KCl, 50 mM KPi, 10% glycerol, 0.02% hexyl-β-glucoside), and re-centrifuged; nucleic acid in supernates was precipitated with 0.1% polyethylenimine. […] Bound RT was eluted with a gradient of 0 to 1.0M
(§4) (NH4)2 SO4 in buffer B. Heparin-Sepharose fractions containing RT were concentrated (Amicon YM-30 membrane), combined with equal volumes of 2.0M (NH4)2SO4 in buffer B and injected onto a 21.5×150 mm TSK Phenyl-5PW HIC HPLC column (Phenomenex). Heterodimeric RT was eluted using a descending gradient of 1.0M to 0M (NH4)2SO4 in buffer B, concentrated, and stored at 4° C.
(§5) The 2.4× concentrated stock reaction mixture was aliquoted and stored at −20° C. The mixture is stable and can be thawed for use in each assay. This enzyme assay has been adapted to a 96 well microtiter plate system, and has been previously described (6). Tris buffer (50 mM, pH 7.8), vehicle (solvent diluted to match the compound dilution), or compounds in vehicle were dispensed into 96-well microtiter plates (10 μL/well; 3 wells/compound). The HIV-1 RT enzyme was thawed, diluted in 50 mM Tris pH 7.8 containing 0.05% Chaps to give 1.5 nM enzyme and 25 μL were dispensed per well. Ten μL of 0.5M EDTA were added to the first three wells of the microtiter plate. EDTA chelates the Mg^2+ present and prevents reverse transcription. This group served as background polymerisation, which was subtracted, from all other groups. Twenty-five μl of the 2.4× reaction mixture was added to all wells and the assay was allowed to incubate at room temperature for 30 minutes. The assay was terminated by precipitating the DNA in each well with 60 μL of sodium pyrophosphate (2% w/v) in 10% trichloroacetic acid (TCA) (10% w/v). The microtiter plate was incubated for 15 minutes at 4° C. and the precipitate was harvested onto #30 glass fibre paper (Schleicher & Schuell) using a Tomtech 96-well harvester. The filters were dried, placed in plastic bags with Betaplate scintillation cocktail (Pharmacia/LKB) and counted in the Betaplate counter (Pharmacia/LKB).
(§6) The calculation for percent inhibition is as follows: [formula] […]

HIV-1 RT wild type (WT) = molecular target: T2, HIV-1 RT wild type (WT) (Human immunodeficiency virus type 1 group M subtype B, UniProt P04585); test: Reverse Transcriptase (RT) assay, wild type enzyme; assay type: biochemical
T2 construct: Heterodimeric RT was eluted using a descending gradient; made in house; host or cells: E. coli
Text: as §1, §2, §3, §4, §5, §6

[2] = system: HIV replication in T-lymphocytes, virus coding for mutant enzyme K103N/Y181C; test: ELISA (p24) assay for activity in cell culture, mutant virus; assay type: cell-based; settings: Human immunodeficiency virus 1, T-lymphocyte, read-out: EC50 K103N/Y181C
Description: (§7) ELISA Assay for Assessment of Activity in Cell Culture
(§8) Compounds of the invention were tested for their ability to inhibit HIV replication in cell culture. Viruses coding for Wild type and mutant enzymes were used. T-lymphocytes were infected with the virus, infected cells were incubated in the presence of varying amounts of compounds of the invention, and an ELISA assay for the viral protein p24 was used to quantify viral replication. Table 9 lists the results as EC50 (nM).

[3] = system: HIV replication in T-lymphocytes, virus coding for wild type enzyme; test: ELISA (p24) assay for activity in cell culture, wild type virus; assay type: cell-based; settings: Human immunodeficiency virus 1, T-lymphocyte, read-out: EC50 WT RT
Description: as §7, §8

| Structure (SMILES) | IC50 [1] | IC50 (HIV-1 RT wild type (WT)) | EC50 [2] | EC50 [3] |
| --- | --- | --- | --- | --- |
| CCN1c2ncc(CCOc3cccc4c3CS(=O)(=O)N4)cc2C(=O)N(C)c2cccnc21 [Compound 101] | 100 to 1000 nM | < 100 nM | < 100 nM |  |
| CCN1c2ncc(CCOc3cccc4c3CNS4(=O)=O)cc2C(=O)N(C)c2cccnc21 [Compound 202] | < 100 nM | < 100 nM | < 100 nM | < 100 nM |
| CCN1c2ncc(CCOc3cccc4c3CS(=O)(=O)N4C)cc2C(=O)Nc2c(C)cc(C)nc21 [Compound 117] | < 100 nM | < 100 nM |  | < 100 nM |
| CCN1c2ncc(CCOc3cccc4c3CCS(=O)(=O)N4CC(=O)NC3(C(=O)O)CC3)cc2C(=O)N(C)c2cccnc21 [Compound 638] | < 100 nM | < 100 nM | < 100 nM | < 100 nM |
| CCN1c2ncc(CCOc3cccc4c3CCS(=O)(=O)N4Cc3ccncc3)cc2C(=O)N(C)c2cccnc21 [Compound 621] | < 100 nM | < 100 nM | < 100 nM | < 100 nM |
| CCN1c2ncc(CCOc3cccc4c3CCS(=O)(=O)N4CCCC(=O)NN)cc2C(=O)N(C)c2cccnc21 [Compound 636] | < 100 nM | < 100 nM | < 100 nM | < 100 nM |
| CCN1c2ncc(CCOc3cccc4c3CS(=O)(=O)N4CC(=O)Nc3cc[n+]([O-])cc3)cc2C(=O)Nc2c(C)cc(Cl)nc21 [Compound 147] | < 100 nM | < 100 nM | < 100 nM | < 100 nM |
| CCN1c2ncc(CCOc3cccc4c3CCN(CCCC(=O)O)S4(=O)=O)cc2C(=O)N(C)c2cccnc21 [Compound 713] | < 100 nM | < 100 nM | < 100 nM | < 100 nM |
| CCN1c2ncc(CCOc3cccc4c3C=CS(=O)(=O)N4CCCC(=O)O)cc2C(=O)N(C)c2cccnc21 [Compound 809] | 100 to 1000 nM | < 100 nM | < 100 nM | < 100 nM |
| CCN1c2ncc(CCOc3cccc4c3CCS(=O)(=O)N4CC(=O)NC(C)(C)C(=O)NN)cc2C(=O)N(C)c2cccnc21 [Compound 641] | < 100 nM | < 100 nM | < 100 nM | < 100 nM |
| CCN1c2ncc(CCOc3cccc4c3CCS(=O)(=O)N4Cc3cccnc3)cc2C(=O)N(C)c2cccnc21 [Compound 629] | < 100 nM | < 100 nM | < 100 nM | < 100 nM |
| CCN1c2ncc(CCOc3cccc4c3CS(=O)(=O)N4Cc3ccc[n+]([O-])c3)cc2C(=O)Nc2c(C)ccnc21 [Compound 137] | < 100 nM | < 100 nM | < 100 nM | < 100 nM |
| CCN1c2ncc(CCOc3cccc4c3CS(=O)(=O)N4Cc3cc[n+]([O-])cc3)cc2C(=O)Nc2c(C)ccnc21 [Compound 136] | < 100 nM | < 100 nM | < 100 nM | < 100 nM |
| CCN1c2ncc(CCOc3cccc4c3CCS(=O)(=O)N4CCN3CCOCC3)cc2C(=O)N(C)c2cccnc21 [Compound 617] | < 100 nM | < 100 nM | < 100 nM | < 100 nM |
| CCN1c2ncc(CCOc3cccc4c3CS(=O)(=O)N4)cc2C(=O)N(C)c2ccc(F)nc21 [Compound 103] | 100 to 1000 nM | < 100 nM | < 100 nM | < 100 nM |
| CCN1c2ncc(CCOc3cccc4c3CCS(=O)(=O)N4CCCC(=O)O)cc2C(=O)N(C)c2cccnc21 [Compound 625] | < 100 nM | < 100 nM | < 100 nM | < 100 nM |
| CCN1c2ncc(CCOc3cccc4c3CCS(=O)(=O)N4CCCS(N)(=O)=O)cc2C(=O)N(C)c2cccnc21 [Compound 630] | < 100 nM | < 100 nM | < 100 nM | < 100 nM |

| Structure (SMILES) | IC50 [1] | IC50 (HIV-1 RT wild type (WT)) | EC50 [2] | EC50 [3] |
| --- | --- | --- | --- | --- |
| CCN1c2ncc(CCOc3cccc4c3CS(=O)(=O)N4CC(=O)Nc3cc[n+]([O-])cc3)cc2C(=O)N(C)c2cccnc21 [Compound 141] | < 100 nM | < 100 nM | < 100 nM | < 100 nM |
| CCN1c2ncc(CCOc3cccc4c3C=CS(=O)(=O)N4C)cc2C(=O)N(C)c2cccnc21 [Compound 803] | < 100 nM | < 100 nM | < 100 nM | < 100 nM |
| CCN1c2ncc(CCOc3cccc4c3CCS(=O)(=O)N4CCOC(N)=O)cc2C(=O)N(C)c2cccnc21 [Compound 639] | < 100 nM | < 100 nM | < 100 nM | < 100 nM |
| CCN1c2ncc(CCOc3cccc4c3CS(=O)(=O)N4C)cc2C(=O)Nc2c(C)cc(F)nc21 [Compound 112] | < 100 nM | < 100 nM |  |  |
| CCN1c2ncccc2NC(=O)c2cc(CCOc3cccc4c3C=CS(=O)(=O)N4C)cnc21 [Compound 805] | 100 to 1000 nM | < 100 nM |  |  |
| CCN1c2ncc(CCOc3cccc4c3CS(=O)(=O)N4CC)cc2C(=O)N(C)c2ccc(C)nc21 [Compound 115] | < 100 nM | < 100 nM |  |  |
| CCN1c2ncc(CCOc3ccc4c(c3)C(C)(C)S(=O)(=O)N4)cc2C(=O)Nc2c(C)cc(F)nc21 [Compound 409] | 100 to 1000 nM | < 100 nM |  |  |
| CCN1c2ncc(CCOc3cccc4c3CCS(=O)(=O)N4CCCC(N)=O)cc2C(=O)N(C)c2cccnc21 [Compound 635] | < 100 nM | < 100 nM |  |  |
| CCN1c2ncc(CCOc3cccc4c3CS(=O)(=O)N4Cc3cc[n+]([O-])cc3)cc2C(=O)Nc2c(C)cc(Cl)nc21 [Compound 146] | < 100 nM | < 100 nM |  |  |
| CCN1c2ncc(CCOc3cccc4c3CCNS4(=O)=O)cc2C(=O)N(C)c2cccnc21 [Compound 712] | < 100 nM | < 100 nM |  |  |
| CCN1c2ncc(CCOc3cccc4c3CCS(=O)(=O)N4Cc3csc(C)n3)cc2C(=O)N(C)c2cccnc21 [Compound 622] | < 100 nM | < 100 nM |  |  |
| CCN(CC)C(=O)N1c2cccc(OCCc3cnc4c(c3)C(=O)N(C)c3cccnc3N4CC)c2CCS1(=O)=O [Compound 610] | < 100 nM | < 100 nM |  |  |
| CCN1c2ncc(CCOc3cccc4c3CCS(=O)(=O)N4Cc3ccc[n+]([O-])c3)cc2C(=O)N(C)c2cccnc21 [Compound 632] | < 100 nM | < 100 nM |  |  |
| CCN1c2ncc(CCOc3cccc4c3CCS(=O)(=O)N4CC(=O)N3CCCC3)cc2C(=O)N(C)c2cccnc21 [Compound 623] | < 100 nM | < 100 nM |  |  |
| CCN1c2ncc(COc3ccc4c(c3)CS(=O)(=O)N4)cc2C(=O)N(C)c2ccc(F)nc21 [Compound 404] | > 1000 nM | < 100 nM |  |  |
| CN1C(=O)c2cc(CCOc3cccc4c3CS(=O)(=O)N4C)cnc2N(C2CC2)c2ncccc21 [Compound 116] | 100 to 1000 nM | < 100 nM |  |  |

Reference: patent publication US6716836B2, “Non-nucleoside reverse transcriptase inhibitors” (Boehringer Ingelheim (Canada) Ltd., priority 2001, dated 2004)
